Where a SMILES comes first, the peptide text is derived from it. [ ]: non-standard residue; d: D form. The star is where a group is joined. Nle = CCCC[C@H](N)C(=O)O; Cbz = O=C(OCc1ccccc1)*; CH2Cl = ClC*

The subject of test [1] is hippocampal slices. Kind of test: Hippocampal slice evoked potential recovery after anoxia (Example 7B). Format: cell-based, rat. The method, then: As in Example 7A, hippocampal slices (400 μm) were prepared from Sprague Dawley rats (6-7 weeks) and maintained in an interface chamber at 35° C. using conventional techniques, i.e. the lower surface of the slice received a constant perfusion (0.5 ml/min) of an artificial cerebrospinal fluid (ACSF), while the upper surface was exposed to a moist atmosphere of O2 :CO2 (95%:5%) exchanged at a rate of 2 L/min. The ACSF medium contains (in mM): NaCl (124), KCl (3), KHPO4 (1.25), MgSO4 (2.5), CaCl2 (3.4), NaHCO3 (26) and D-Glucose (10). Field excitatory post-synaptic responses were recorded from stratum radiatum of CA1b in response to stimulation of Schaffer-commissural fibers in CA1a or CA1c. The depth of the recording electrode was optimized and evoked responses were collected at a rate of one evoked response every 30 seconds.
After establishing a stable baseline of evoked responses (approximately 10 minutes), ACSF containing Calpain Inhibitor was washed into the chamber and slices were incubated for a period of one hour. After incubation, evoked responses were again recorded and the change in the amplitude of the responses from baseline levels was noted. No effect of the inhibitors tested on baseline evoked responses was observed.
For anoxia experiments, incubation in the drug-containing medium was followed by replacement of the O2 :CO2 (95%:5%) atmosphere with N2 :CO2 (95%:5%). Slices were exposed to this anoxic environment until disappearance of the pre-synaptic fiber volley and for two minutes (severe anoxia) longer (total time in anoxic environment approximately 7-8 minutes in control case). Effects of Calpain Inhibitors on the functional recovery of the slices after the anoxic episode were then measured. Recovery of the evoked potential (EPSP) slope and amplitude by the drug treated slices can be compared to control slices to determine the relative efficacy of various Calpain Inhibitors.

The next test concerns N18-RE-105 cells. Kind of test: Glutamate-induced cell death, MTT conversion (Example 5). Format: cell-based. Particulars: 5 mM glutamate, inhibitor 3 μg/ml, 19 hours. The method, then: Stock cultures of N18-RE-105 cells were maintained in Dulbecco's modified Eagle's medium (DMEM) containing 10% fetal bovine serum (FBS) and supplemented with hypoxanthine, aminopterin and thymidine (HAT). Subconfluent cultures were split and plated into 96-well plates. Twenty-four hours after plating the cells were exposed to fresh media containing glutamate and various concentrations of Calpain inhibitors. Control cells were not treated with glutamate. Conversion of MTT was measured 19 hours later as described. Nineteen hours after the onset of exposure, cell viability was quantitated by measuring the extent to which the cells convert 3(4,5-dimethylthiazol-2-yl)-2-5-diphenyltetrazolium bromide (MTT) to a blue formazan product, which occurs in the mitochondria of living but not dead cells (Pauwels et al., 1988). A higher absorbance is indicative of greater cell viability.

For test [2], the system named is Calpain in crude brain extracts. Kind of test: Ca2+-stimulated spectrin proteolysis in crude brain extracts (Example 2). Format: biochemical. In a few lines:
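Brain tissue was homogenized in 10 mM Tris pH 7.4, 0.32 M sucrose, 1 mM EGTA and 1 mM DTT, and nuclei and debris were removed. Calpain activity was scored as Ca^2+-stimulated proteolysis of endogenous spectrin.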

Test [3] relates to rats injected with kainic acid. The test is described as follows: Kainate-induced behavioral symptoms and convulsions (Example 8A). Format: in vivo, rat. Conditions: 12 mg/kg kainic acid i.p., 4.6 mg calpain inhibitor in DMSO i.p., observed six hours. The method, then: Rats (male Sprague-Dawley, 200±5 gms) were injected intraperitoneally with 12 mg/kg kainic acid in saline vehicle and ether 2001 μl DMSO (dimethylsulfoxide) or 4.6 mg calpain inhibitor dissolved in the same volume of DMSO.

Test [4] has as its system hippocampal slices. The test is described as follows: Hippocampal slice survival after 10 min anoxia (Example 7A). The class given is cell-based, rat. The method, then: Hippocampal slices (400 um) were prepared from Sprague Dawley rats (6 to 7 weeks) and maintained in an interface chamber at 35° C. using conventional techniques, i.e., the lower surface of the slice received a constant perfusion (0.5 ml/min) of ACSF, while the upper surface was exposed to a moist atmosphere of O2 :CO2 (95%:5%) exchanged at a rate of 2 L/min. The ACSF medium contains (in mM): NaCl (124), KCl (3), KHPO4 (2.5), CaCl (3.4), NaHCO3 (26) and D-Glucose (10). Field excitatory post-synaptic responses were recorded from stratum radiatum of CAlb in response to stimulation of Schaffer-commissural fibers in CAla or CAlc. The depth of the recording electrode was optimized and evoked responses were collected at a rate of one evoked response every 30 seconds.
For the initial screening procedure, 14 to 16 slices are harvested from the hippocampus of a single rat and placed in a common ACSF bath. Each slice is tested in sequence to determine the magnitude of its pre-anoxic evoked response. Five stimulation pulses (each 0.1 ms (millisecond) in duration) were presented over a 15 second interval. The largest evoked response was noted and recorded for each slice.
After the one hour drug incubation period, the oxygen-enriched atmosphere of the chamber was made anoxic by substituting nitrogen for oxygen (N2 =95%; CO^2 =5%). The slices were retained in this anoxic environment for 10 minutes, following which the oxygen-enriched atmosphere (O^2 =95%; CO2 =5%) was reestablished.
The slices were given the opportunity to recover for 30 minutes following reoxygenation whereupon each was stimulated and the maximum evoked potential determined, as described above during the pre-anoxia period. Those slices which, after anoxia, produced a maximum evoked potential of greater than 50% of that observed prior to anoxia were defined as surviving slices.

The next test addresses T1, Calpain I (Homo sapiens, UniProt P07384).
T1 sequence (P07384 1-714): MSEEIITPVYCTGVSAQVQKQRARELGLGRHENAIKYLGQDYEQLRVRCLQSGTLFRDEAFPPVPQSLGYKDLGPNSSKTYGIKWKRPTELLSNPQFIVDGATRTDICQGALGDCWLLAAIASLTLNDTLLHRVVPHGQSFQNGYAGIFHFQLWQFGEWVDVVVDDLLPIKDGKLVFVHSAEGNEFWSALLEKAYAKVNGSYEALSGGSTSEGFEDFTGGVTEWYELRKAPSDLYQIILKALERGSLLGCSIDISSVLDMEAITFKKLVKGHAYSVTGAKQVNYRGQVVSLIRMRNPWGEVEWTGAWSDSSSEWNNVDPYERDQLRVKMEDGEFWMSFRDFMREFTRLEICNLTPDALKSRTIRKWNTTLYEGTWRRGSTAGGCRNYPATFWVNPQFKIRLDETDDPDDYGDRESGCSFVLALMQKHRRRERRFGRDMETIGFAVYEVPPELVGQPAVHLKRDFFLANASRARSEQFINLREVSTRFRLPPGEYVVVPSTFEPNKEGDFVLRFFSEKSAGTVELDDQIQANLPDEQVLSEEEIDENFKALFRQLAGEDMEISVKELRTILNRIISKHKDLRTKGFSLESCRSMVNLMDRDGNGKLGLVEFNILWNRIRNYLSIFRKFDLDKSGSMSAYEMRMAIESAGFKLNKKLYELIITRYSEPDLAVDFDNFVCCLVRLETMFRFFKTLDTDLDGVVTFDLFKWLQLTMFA
T1 sequence (P04632 1-268 partner): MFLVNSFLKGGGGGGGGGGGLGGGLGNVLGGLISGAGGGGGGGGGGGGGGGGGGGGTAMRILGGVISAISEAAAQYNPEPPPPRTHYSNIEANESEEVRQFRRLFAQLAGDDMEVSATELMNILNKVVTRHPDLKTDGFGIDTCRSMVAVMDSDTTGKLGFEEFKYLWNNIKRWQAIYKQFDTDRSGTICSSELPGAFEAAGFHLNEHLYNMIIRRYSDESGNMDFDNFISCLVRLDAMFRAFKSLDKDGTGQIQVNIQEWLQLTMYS
Kind of test: Kapp/[I] progress curve method, human Calpain I (Table 1C). Conditions: Suc-leu-tyr-amidomethylcoumarin. Format: biochemical. The method, then: The Halo-Ketone Peptides, like the substituted isocoumarins, are irreversible inhibitors of Calpain. We determined the Kapp /[I] values for various members of this class of compounds against Calpains I and II. For comparison, we also determined these values against the additional thiol proteases Papain and Cathepsin B for at least one Halo-Ketone Peptide.
We assayed Calpain I and II using Suc-leu-tyr-amidomethylcoumarin. Papain was assayed using benzoyl-arg-4-nitroanilide, and Cathepsin B (bovine) was assayed using CBZ-lys-4-nitrophenyl ester. We followed the progress curve method of Tian and Tsou, Biochemistry, 21:1028-1032 (1982), the disclosure of which is hereby incorporated by reference, to derive kinetic data. Briefly, this method makes use of the equation: [formula] where [P.infin. ] represents the concentration of product formed at a time approaching infinity, A is the Kapp in the presence of substrate (S), K is the Michaelis constant and [Y] is the concentration of the inhibitor. Since [S] and [Y] are known and V and K can be determined, Kapp can be readily determined.

Another test concerns Calpain within platelets. The test is described as follows: Platelet membrane permeation assay, spectrin proteolysis (Examples 4A, 4B). The class given is cell-based, rat. Particulars: 100 μM, A23187 1 μM. In a few lines: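 Rat (Sprague-Dawley) platelets at 10^7 cells/ml in HEPES buffer pH 7.4, preincubated 5 min with inhibitor, then 5 min with 1 μM A23187 to activate calpain. Spectrin proteolysis assessed by SDS-PAGE and anti-spectrin immunoblot, quantified by densitometry.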

Another test has as its system Calpain II. The test is described as follows: Kapp/[I] progress curve method, Calpain II (Table 1C). Format: biochemical. Also noted: unit not given here. Conditions: Rabbit Calpain II, Suc-leu-tyr-amidomethylcoumarin. In a few lines:
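Irreversible inactivation of calpains I and II followed with Suc-Leu-Tyr-AMC substrate; papain assayed with benzoyl-Arg-4-nitroanilide. Kapp derived by the Tian–Tsou progress-curve method from product formed at infinite time, known substrate and inhibitor concentrations, Vmax and Km; values reported as Kapp/[I].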

As for `CCCC[C@@H](C=O)NC(=O)[C@H](CC(C)C)NC(=O)[C@H](CC(C)C)NC(C)=O` [CI1, Ac-Leu-Leu-Nle-H, reference compound] (Ac-Leu-Leu-[Nle]-aldehyde), the “% Recovery of synaptic transmission after anoxia” value with hippocampal slices [1] (Concentration 200, ten minutes anoxia) amounted to 35%. In the test on hippocampal slices [1] (hippocampal slices), the “period of anoxia required to produce fiber volley disappearance (FIG. 6)” value was “does not significantly lengthen the period of anoxia required to suppress electrical activity”. In the test with N18-RE-105 cells, the “blue formazan product relative to control without glutamate” value is recorded as “protect N18-RE-105 cells against glutamate toxicity”. Further, the “inhibition in the system of Example 2” value in test [2] (concentration not given) is recorded as “showed inhibition”. Also, the “kainate-induced behavioral symptoms and convulsions (FIG. 7)” value in test [3] is “incidence and severity of convulsions was reduced”. Besides, the “protection of slices from anoxia (FIG. 3)” value with hippocampal slices [4] (10 minutes anoxic atmosphere) is listed as “protected from the effects of anoxia”. In the test with hippocampal slices [4] (Dose 200 μM, incubation 2 hours), the “Survival of slices after ten minutes anoxia” value came to 53%.
Consider `CC(C)CC(NC(=O)OCc1ccccc1)C(=O)NC(Cc1ccccc1)C(=O)CCl` (stereo not drawn) [Z-Leu-Phe-CH2 Cl] (Cbz-Leu-Phe-CH2Cl; configuration not given here), for which the “Kapp/[I] CI” value on Calpain I is 225000. Also, in test [2] (100 μM), the “inhibition of spectrin proteolysis in crude brain extracts” value is on record as “significant inhibition”. Moreover, the “inhibition of Calpain within platelets” value in the test on Calpain within platelets is reported as “significant inhibition”. In addition, in the test with Calpain II, the “Kapp/[I] CII” value came to 585000.

Values taken from patent publication US5444042A, “Method of treatment of neurodegeneration with calpain inhibitors” (Cortex Pharmaceuticals, priority 1994, dated 1995).
